From the NIST ThermoML archive (doi:10.1016/j.jct.2007.08.002)

Experiment: molar heat capacity at constant pressure
Details: 101.33 kPa, Small (less than 1 g) adiabatic calorimetry

NC12CC3CC(CC(C3)C1)C2 [tricyclo(3.3.1.1:3,7)decan-1-amine]
Details	molar heat capacity at constant pressure [J/K/mol]
5 K, Crystal 3	0.4688
10 K, Crystal 3	3.505
15 K, Crystal 3	9.163
20 K, Crystal 3	15.65
25 K, Crystal 3	21.75
30 K, Crystal 3	26.96
35 K, Crystal 3	31.21
40 K, Crystal 3	34.7
45 K, Crystal 3	37.68
50 K, Crystal 3	40.29
60 K, Crystal 3	44.98
70 K, Crystal 3	49.57
80 K, Crystal 3	54.53
90 K, Crystal 3	59.87
100 K, Crystal 3	65.39
110 K, Crystal 3	71.11
120 K, Crystal 3	77.06
130 K, Crystal 3	83.31
140 K, Crystal 3	89.8
150 K, Crystal 3	96.61
160 K, Crystal 3	103.8
170 K, Crystal 3	111.5
180 K, Crystal 3	119.5
190 K, Crystal 3	128
200 K, Crystal 3	136.9
210 K, Crystal 3	146.4
220 K, Crystal 3	156.5
230 K, Crystal 3	167.1
240 K, Crystal 3	178.3
241.4 K, Crystal 2	179.9
241.4 K, Crystal 3	179.9
250 K, Crystal 2	190.2
260 K, Crystal 2	202.7
270 K, Crystal 2	215.9
280 K, Crystal 2	230
284.6 K, Crystal 1	263.6
284.6 K, Crystal 2	236.6
290 K, Crystal 1	264.7
298.15 K, Crystal 1	266.4
300 K, Crystal 1	266.8
310 K, Crystal 1	268.9
320 K, Crystal 1	271.1
330 K, Crystal 1	273.1
340 K, Crystal 1	275.5
350 K, Crystal 1	278.5
360 K, Crystal 1	282.1
370 K, Crystal 1	286.4
